Assay results as given in article PMC6965684, “Characterization of binding, functional activity, and contractile responses of the selective 5‐HT1F receptor agonist lasmiditan” (British Journal of Pharmacology, 2019).
Structures can show the parent of a compound that is named as a salt. Where two headings read alike, the source gives them in different places.

Experiments:
5-ht1E receptor [1] = target: T1, 5-ht1E receptor (Homo sapiens, UniProt P28566); experiment: biochemical; format: CHO-K1 membranes; parameters: GTPγS agonist functional assay; details: GTPγS
T1 construct: gene HTR1E; full-length human recombinant receptor in CHO-K1 cells (Ogeda); crude membranes
T1 sequence (P28566 whole entry): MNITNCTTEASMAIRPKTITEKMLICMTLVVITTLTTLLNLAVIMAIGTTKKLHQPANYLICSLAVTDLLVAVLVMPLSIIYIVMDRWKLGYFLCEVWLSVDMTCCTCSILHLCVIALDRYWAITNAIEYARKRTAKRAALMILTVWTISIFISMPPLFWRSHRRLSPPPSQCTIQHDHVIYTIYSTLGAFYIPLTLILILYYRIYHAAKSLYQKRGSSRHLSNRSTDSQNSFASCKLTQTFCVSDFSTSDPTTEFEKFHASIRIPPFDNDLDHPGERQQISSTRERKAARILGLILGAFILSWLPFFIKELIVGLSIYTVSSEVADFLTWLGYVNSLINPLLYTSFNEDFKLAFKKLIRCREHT
Excerpt: Additionally, the reference values obtained were compared to historical values obtained from the same receptor and used to validate the experimental session. […] For the new assays developed in this study (i.e., 5‐ht1E receptor), the two independent pIC50 determined must be concordant with a 1 log unit interval for the assays to be validated.

5-ht1E receptor [2] = target: T1, 5-ht1E receptor; experiment: radioligand competition, CHO-K1 membranes; format: binding
Excerpt: radioligand competition, CHO-K1 membranes on 5-ht1E receptor

5-ht1E receptor [3] = target: T1, 5-ht1E receptor; experiment: cell-based; parameters: species or system CHO-K1; cAMP HTRF agonist assay, Gi coupled receptors, inhibition of stimulated cAMP; details: cAMP
Description: Concentration–response curves were performed in parallel with the agonists. […] After addition of the lysis buffer and 1‐hr incubation, cAMP concentrations were estimated according to the manufacturer specification with the HTRF kit (Cisbio International, Codelet, France). In brief, increasing concentrations of agonists were added to stably transfected cells in buffer in an Optiplate (PerkinElmer Life Sciences, Massachusetts, USA). The plates were incubated, and cells were then lysed by the addition of HTRF reagents (cAMP‐Cryptate and anti‐cAMP‐d2 reagents) and diluted in lysis buffer, followed by incubation at room temperature. […] Additionally, the reference values obtained were compared to historical values obtained from the same receptor and used to validate the experimental session. […] For the new assays developed in this study (i.e., 5‐ht1E receptor), the two independent pIC50 determined must be concordant with a 1 log unit interval for the assays to be validated.

5-ht1E receptor [4] = target: T1, 5-ht1E receptor; experiment: biochemical; format: CHO-K1 membranes; parameters: radioligand competition binding on cell membranes, filtration and TopCount scintillation counting; details: radioligand displacement; read-out: 5‐ht1E / pIC50 (converted)
Description: (§1) Competition binding was performed in duplicate in the wells of a 96‐well plate containing binding buffer (optimized for each receptor), cell membrane extracts (approximately 20,000 cells distributed in the 96‐well plate), radiotracer, and test agonist. Non‐specific binding was determined by co‐incubation with 200‐fold excess of competitor. Cells were incubated and exposed to varying concentrations (1 pM to 10 μM) of a range of displacer agonists (see below). The samples were incubated in a final volume of 0.1 ml and then filtered over Unifilter plates (Perkin Elmer, Massachusetts, USA) pretreated for 2 hr to limit tracer non‐specific binding. Filters were washed five times with 0.5 ml of ice‐cold washing buffer (tris 50 mM pH 7.4) and 50 μl of Microscint 20 (Perkin Elmer) were added to each filter. The plates were incubated 15 min at room temperature on an orbital shaker and then counted with a TopCount™ (Perkin Elmer) for 1 min per well. […] Additionally, the reference values obtained were compared to historical values obtained from the same receptor and used to validate the experimental session. […] For the new assays developed in this study (i.e., 5‐ht1E receptor), the two independent pIC50 determined must be concordant with a 1 log unit interval for the assays to be validated.

5-HT2B receptor = target: T2, 5-HT2B receptor (Homo sapiens, UniProt P41595); experiment: radioligand competition, CHO-K1 membranes; format: binding
T2 construct: gene HTR2B; full-length human recombinant receptor in CHO-K1 cells (Ogeda); crude membranes
T2 sequence (P41595 whole entry): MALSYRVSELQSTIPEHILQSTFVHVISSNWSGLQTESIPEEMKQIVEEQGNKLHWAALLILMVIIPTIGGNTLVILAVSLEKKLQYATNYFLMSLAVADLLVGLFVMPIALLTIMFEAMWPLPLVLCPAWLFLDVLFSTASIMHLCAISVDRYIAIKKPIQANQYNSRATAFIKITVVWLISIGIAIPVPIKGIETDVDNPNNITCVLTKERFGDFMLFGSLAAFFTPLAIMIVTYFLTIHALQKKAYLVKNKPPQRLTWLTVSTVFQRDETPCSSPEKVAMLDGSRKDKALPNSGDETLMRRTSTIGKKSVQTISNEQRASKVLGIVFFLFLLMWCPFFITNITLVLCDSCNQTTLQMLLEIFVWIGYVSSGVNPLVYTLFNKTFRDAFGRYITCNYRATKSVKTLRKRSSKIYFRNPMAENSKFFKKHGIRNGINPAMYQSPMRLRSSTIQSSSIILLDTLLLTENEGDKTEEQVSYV
Excerpt: radioligand competition, CHO-K1 membranes on 5-HT2B receptor

5-HT2A receptor [5] = target: T3, 5-HT2A receptor (Homo sapiens, UniProt P28223); experiment: biochemical; format: CHO-K1 membranes; parameters: radioligand competition binding on cell membranes, filtration and TopCount scintillation counting
T3 construct: gene HTR2A; full-length human recombinant receptor in CHO-K1 cells (Ogeda); crude membranes
T3 sequence (P28223 whole entry): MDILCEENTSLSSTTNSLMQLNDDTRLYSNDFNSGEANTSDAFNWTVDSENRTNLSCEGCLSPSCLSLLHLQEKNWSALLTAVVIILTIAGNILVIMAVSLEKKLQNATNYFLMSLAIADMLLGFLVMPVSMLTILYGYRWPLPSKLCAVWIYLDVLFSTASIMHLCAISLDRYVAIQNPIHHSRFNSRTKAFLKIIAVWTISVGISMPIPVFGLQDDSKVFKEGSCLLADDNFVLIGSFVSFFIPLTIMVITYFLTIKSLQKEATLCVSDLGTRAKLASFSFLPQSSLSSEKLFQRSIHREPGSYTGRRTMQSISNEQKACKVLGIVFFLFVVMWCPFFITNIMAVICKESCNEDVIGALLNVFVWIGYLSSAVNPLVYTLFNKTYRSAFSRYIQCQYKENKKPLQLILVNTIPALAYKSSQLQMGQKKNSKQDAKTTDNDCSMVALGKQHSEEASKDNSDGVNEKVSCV
Description: as §1, with “validated. […]” for “validated.”

5-HT2A receptor [6] = target: T3, 5-HT2A receptor; experiment: cell-based; parameters: species or system CHO-K1; IPOne HTRF agonist assay, IP1 accumulation in adherent transfected cells
Description: The assay was performed on adherent cells. For agonist testing, the medium was removed and 20 μl of assay buffer plus 20 μl of the studied agonist or the reference agonist were added in each well. The plate was incubated for 60 min at 37°C with 5% CO2. IP1‐D2 reagent and anti‐IP1 cryptate reagents were dispensed in the wells, and IP1 concentrations were then measured following the manufacturer instructions (IPOne HTRF assay kit; Cisbio International, Codolet, France). In brief, increasing concentrations of agonists were added to stably transfected cells in buffer in an Optiplate (PerkinElmer Life Sciences). The plates were incubated, and cells were then lysed by the addition of HTRF reagents (IP1‐D2 reagent and anti‐IP1 cryptate reagents) and diluted in lysis buffer, followed by incubation at room temperature. […] Additionally, the reference values obtained were compared to historical values obtained from the same receptor and used to validate the experimental session. […] For the new assays developed in this study (i.e., 5‐ht1E receptor), the two independent pIC50 determined must be concordant with a 1 log unit interval for the assays to be validated. […]

5-HT1F receptor [7] = target: T4, 5-HT1F receptor (Homo sapiens, UniProt P30939); experiment: cAMP HTRF, stably transfected CHO-K1 cells; format: cell-based; details: agonist mode; inhibition of stimulated cAMP, […] min, room temperature
T4 construct: gene HTR1F; full-length human recombinant receptor in CHO-K1 cells (Ogeda)
T4 sequence (P30939 1-366): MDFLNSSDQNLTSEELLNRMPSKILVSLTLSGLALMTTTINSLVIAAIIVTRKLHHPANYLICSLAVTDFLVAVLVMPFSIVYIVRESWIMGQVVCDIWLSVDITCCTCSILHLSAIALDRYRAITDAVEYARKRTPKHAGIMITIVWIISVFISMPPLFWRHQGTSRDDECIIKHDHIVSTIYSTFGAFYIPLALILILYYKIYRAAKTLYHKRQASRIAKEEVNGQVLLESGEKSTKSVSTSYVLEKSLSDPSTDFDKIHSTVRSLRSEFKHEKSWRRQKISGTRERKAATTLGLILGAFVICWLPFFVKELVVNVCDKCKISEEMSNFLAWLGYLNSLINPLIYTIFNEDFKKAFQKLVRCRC

5-HT1B receptor = target: T5, 5-HT1B receptor (Homo sapiens, UniProt P28222); experiment: radioligand competition, CHO-K1 membranes; format: binding; details: radioligand listed in supplement Table S1
T5 construct: gene HTR1B; full-length human recombinant receptor in CHO-K1 cells (Ogeda); crude membranes
T5 sequence (P28222 whole entry): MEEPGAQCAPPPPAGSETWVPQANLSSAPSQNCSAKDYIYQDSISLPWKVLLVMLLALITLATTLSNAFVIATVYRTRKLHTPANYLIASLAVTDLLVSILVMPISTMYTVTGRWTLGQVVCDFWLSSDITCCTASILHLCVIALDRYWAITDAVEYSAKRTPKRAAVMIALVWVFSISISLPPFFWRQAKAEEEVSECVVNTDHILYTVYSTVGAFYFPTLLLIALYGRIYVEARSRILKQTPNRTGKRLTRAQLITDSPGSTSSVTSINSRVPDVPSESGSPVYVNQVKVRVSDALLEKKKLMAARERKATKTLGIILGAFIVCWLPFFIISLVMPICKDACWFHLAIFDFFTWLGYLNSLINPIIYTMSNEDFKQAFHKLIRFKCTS
Excerpt: radioligand competition, CHO-K1 membranes on 5-HT1B receptor

5-HT1A receptor = target: T6, 5-HT1A receptor (Homo sapiens, UniProt P08908); experiment: radioligand competition, CHO-K1 membranes; format: binding; details: radioligand listed in supplement Table S1
T6 construct: gene HTR1A; full-length human recombinant receptor in CHO-K1 cells (Ogeda); crude membranes
T6 sequence (P08908 1-422): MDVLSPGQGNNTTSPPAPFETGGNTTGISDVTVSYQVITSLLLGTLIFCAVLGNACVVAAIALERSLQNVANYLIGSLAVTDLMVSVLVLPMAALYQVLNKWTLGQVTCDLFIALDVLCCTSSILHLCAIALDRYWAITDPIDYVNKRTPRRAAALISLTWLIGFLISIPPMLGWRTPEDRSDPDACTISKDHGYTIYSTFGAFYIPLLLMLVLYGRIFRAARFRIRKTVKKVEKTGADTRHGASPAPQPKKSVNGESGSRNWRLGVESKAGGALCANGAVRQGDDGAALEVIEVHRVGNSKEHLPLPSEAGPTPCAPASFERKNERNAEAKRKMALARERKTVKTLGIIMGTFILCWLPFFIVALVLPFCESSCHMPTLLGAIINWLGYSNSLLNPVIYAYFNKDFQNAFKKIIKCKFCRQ
Excerpt: radioligand competition, CHO-K1 membranes on 5-HT1A receptor

5-HT1D receptor = target: T7, 5-HT1D receptor (Homo sapiens, UniProt P28221); experiment: radioligand competition, CHO-K1 membranes; format: binding; details: radioligand listed in supplement Table S1
T7 construct: gene HTR1D; full-length human recombinant receptor in CHO-K1 cells (Ogeda); crude membranes
T7 sequence (P28221 whole entry): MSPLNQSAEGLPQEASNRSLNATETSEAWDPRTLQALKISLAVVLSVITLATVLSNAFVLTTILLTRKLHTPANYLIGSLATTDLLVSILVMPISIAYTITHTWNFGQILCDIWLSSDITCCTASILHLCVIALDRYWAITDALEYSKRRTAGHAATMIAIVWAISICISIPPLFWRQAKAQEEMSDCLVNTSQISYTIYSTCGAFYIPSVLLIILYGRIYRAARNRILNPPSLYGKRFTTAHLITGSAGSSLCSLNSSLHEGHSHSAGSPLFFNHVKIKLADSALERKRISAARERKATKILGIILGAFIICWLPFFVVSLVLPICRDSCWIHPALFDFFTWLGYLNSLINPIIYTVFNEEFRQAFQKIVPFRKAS
Excerpt: radioligand competition, CHO-K1 membranes on 5-HT1D receptor

5-HT1F receptor [8] = target: T4, 5-HT1F receptor; experiment: radioligand competition, CHO-K1 membranes; format: binding; details: radioligand listed in supplement Table S1
[9] = radioligand displacement, read-out: 5‐HT2A / pIC50 (converted)
[10] = radioligand displacement, read-out: 5‐HT2A / pKi (converted)
[11] = radioligand listed in supplement Table S1
[12] = IP, read-out: 5‐HT2A / IP (converted)

Compound: CNS(=O)(=O)Cc1ccc2[nH]cc(CCN(C)C)c2c1 [Sumatriptan succinate]
- EC50 (5-ht1E receptor [1]): 1.62 µM
- Ki (5-ht1E receptor [2]; read-out: 5-ht1E / pKi (converted)): 1.91 µM
- EC50 (5-ht1E receptor [3]): 1.02 µM
- IC50 (5-ht1E receptor [4]): 3.8 µM
- Ki (5-HT2B receptor; read-out: / pKi (converted)): > 10 µM

Compound: CN(C)CCc1c[nH]c2ccc(Cn3cncn3)cc12 [Rizatriptan benzoate]
- IC50 (5-HT2A receptor [5]): > 10 µM
- Ki (5-HT2A receptor [5]): > 10 µM
- EC50 (5-HT2A receptor [6]): > 10 µM

Compound: CN(C)CCc1c[nH]c2ccc(CS(=O)(=O)N3CCCC3)cc12 [Almotriptan malate]
- 5-HT1F / cAMP (5-HT1F receptor [7]): 7.79 -log M
- IC50 (5-HT2A receptor [5]; [9]): > 10 µM
- Ki (5-HT2A receptor [5]; [10]): > 10 µM
- 5-HT1B / pKi (5-HT1B receptor): 8.45 -log M
- 5-HT1A / pKi (5-HT1A receptor): 6.73 -log M
- 5-ht1E / pKi (5-ht1E receptor [2]; [11]): < 5 -log M
- EC50 (5-HT2A receptor [6]; [12]): > 10 µM
- 5-HT1D / pKi (5-HT1D receptor): 8.26 -log M
- / pKi (5-HT2B receptor; [11]): < 5 -log M
- 5-HT1F / pKi (5-HT1F receptor [8]): 7.57 -log M

Compound: c1ccc2c(c1)CC[C@H](CNCCCNC1=NCCCN1)O2 [Alniditan dihydrochloride]
- IC50 (5-HT2A receptor [5]; [9]): > 10 µM
- EC50 (5-HT2A receptor [6]; [12]): > 10 µM

Compound: CN1CCC(c2c[nH]c3ccc(NC(=O)c4ccc(F)cc4)cc23)CC1 [LY334370 hydrochloride]
- IC50 (5-HT2A receptor [5]; [9]): 7.76 µM
- EC50 (5-HT2A receptor [6]; [12]): > 10 µM

Compound: CN(C)CCc1c[nH]c2ccc(C[C@H]3COC(=O)N3)cc12 [Zolmitriptan]
- IC50 (5-HT2A receptor [5]; [9]): > 10 µM
- Ki (5-HT2A receptor [5]; [10]): > 10 µM
- EC50 (5-HT2A receptor [6]; [12]): > 10 µM
